Tests used:
Pseudomonas aeruginosa [1] = experiment: Antibacterial activity against Pseudomonas aeruginosa 101243 assessed as fractional inhibitory concentration incubated for 18 hrs in presence of doxycycline by broth microdilution assay; assay type: functional
Pseudomonas aeruginosa [2] = experiment: Antibacterial activity against Pseudomonas aeruginosa 101243 assessed as fractional inhibitory concentration incubated for 18 hrs in presence of chloramphenicol by broth microdilution assay; assay type: functional
Pseudomonas aeruginosa [3] = experiment: Antibacterial activity against Pseudomonas aeruginosa 100036 assessed as fractional inhibitory concentration incubated for 18 hrs in presence of chloramphenicol by broth microdilution assay; assay type: functional
Pseudomonas aeruginosa [4] = experiment: Antibacterial activity against Pseudomonas aeruginosa 100036 assessed as reduction in bacterial growth by measuring doxycycline MIC at 4 ug/ml incubated for 18 hrs in presence of doxycycline by broth microdilution assay (reference value: 64 ug/ml); assay type: functional; settings: dose 4 µg/ml
Pseudomonas aeruginosa [5] = experiment: Antibacterial activity against Pseudomonas aeruginosa 262-101856 assessed as fractional inhibitory concentration incubated for 18 hrs in presence of chloramphenicol by broth microdilution assay; assay type: functional
Pseudomonas aeruginosa [6] = experiment: Antibacterial activity against Pseudomonas aeruginosa 262-101856 assessed as fractional inhibitory concentration incubated for 18 hrs in presence of doxycycline by broth microdilution assay; assay type: functional
Pseudomonas aeruginosa [7] = experiment: Potentiation of chloramphenicol-induced antibacterial activity against Pseudomonas aeruginosa PAO1 incubated for 18 hrs in presence of chloramphenicol by broth microdilution assay; assay type: functional, organism-based; settings: dose 1-32 µg/ml
Enterobacter cloacae [8] = experiment: Antibacterial activity against Enterobacter cloacae ATCC 117029 assessed as fractional inhibitory concentration index in presence of chloramphenicol incubated for 18 hrs by broth microdilution assay; assay type: functional
Klebsiella pneumoniae [9] = experiment: Antibacterial activity against Klebsiella pneumoniae ATCC 16381 assessed as potentiation of doxycycline-induced antibacterial activity by measuring doxycycline MIC at 10 uM incubated for 18 hrs in presence of doxycycline by broth microdilution assay (reference value: 128 ug/ml); assay type: functional
Enterobacter cloacae [10] = experiment: Antibacterial activity against Enterobacter cloacae ATCC 117029 assessed as potentiation of doxycycline-induced antibacterial activity by measuring doxycycline MIC at 10 uM incubated for 18 hrs in presence of doxycycline by broth microdilution assay (reference value: 64 ug/ml); assay type: functional
Pseudomonas aeruginosa [11] = experiment: Potentiation of chloramphenicol-induced antibacterial activity against Pseudomonas aeruginosa 100036 assessed as fold change in chloramphenicol MIC at 7.6 uM incubated for 18 hrs in presence of chloramphenicol by broth microdilution assay relative to control; assay type: functional
Pseudomonas aeruginosa [12] = experiment: Potentiation of chloramphenicol-induced antibacterial activity against Pseudomonas aeruginosa 260-97103 incubated for 18 hrs in presence of chloramphenicol by broth microdilution assay; assay type: functional, organism-based; settings: dose 1-32 µg/ml
Pseudomonas aeruginosa [13] = experiment: Potentiation of doxycycline-induced antibacterial activity against Pseudomonas aeruginosa PAO1 incubated for 18 hrs in presence of doxycycline by broth microdilution assay; assay type: functional, organism-based; settings: dose 1-32 µg/ml
Pseudomonas aeruginosa [14] = experiment: Antibacterial activity against Pseudomonas aeruginosa 260-97103 assessed as potentiation of doxycycline-induced antibacterial activity by measuring doxycycline MIC at 7.6 uM incubated for 18 hrs in presence of doxycycline by broth microdilution assay (reference value: 16 ug/ml); assay type: functional
Klebsiella pneumoniae [15] = experiment: Antibacterial activity against Klebsiella pneumoniae ATCC 16381 assessed as potentiation of chloramphenicol-induced antibacterial activity by measuring chloramphenicol MIC at 10 uM incubated for 18 hrs in presence of chloramphenicol by broth microdilution assay (reference value: 1024 ug/ml); assay type: functional
Enterobacter cloacae [16] = experiment: Antibacterial activity against Enterobacter cloacae ATCC 117029 assessed as potentiation of chloramphenicol-induced antibacterial activity by measuring chloramphenicol MIC at 10 uM incubated for 18 hrs in presence of chloramphenicol by broth microdilution assay (reference value: 8 ug/ml); assay type: functional
Pseudomonas aeruginosa [17] = experiment: Antibacterial activity against Pseudomonas aeruginosa 114228 assessed as fractional inhibitory concentration index in presence of doxycycline incubated for 18 hrs by broth microdilution assay; assay type: functional
Pseudomonas aeruginosa [18] = experiment: Potentiation of doxycycline-induced antibacterial activity against Pseudomonas aeruginosa 260-97103 incubated for 18 hrs in presence of doxycycline by broth microdilution assay; assay type: functional, organism-based; settings: dose 1-32 µg/ml
Klebsiella pneumoniae [19] = experiment: Antibacterial activity against Klebsiella pneumoniae ATCC 16381 assessed as reduction in bacterial growth incubated for 18 hrs by broth microdilution assay; assay type: functional
Pseudomonas aeruginosa [20] = experiment: Antibacterial activity against Pseudomonas aeruginosa 262-101856 assessed as potentiation of chloramphenicol-induced antibacterial activity by measuring chloramphenicol MIC at 7.6 uM incubated for 18 hrs in presence of chloramphenicol by broth microdilution assay (reference value: 2048 ug/ml); assay type: functional
Acinetobacter baumannii = experiment: Antibacterial activity against Acinetobacter baumannii ATCC 17978 assessed as potentiation of chloramphenicol-induced antibacterial activity by measuring chloramphenicol MIC at 10 uM incubated for 18 hrs in presence of chloramphenicol by broth microdilution assay (reference value: 64 ug/ml); assay type: functional
Pseudomonas aeruginosa [21] = experiment: Antibacterial activity against Pseudomonas aeruginosa 260-97103 assessed as potentiation of chloramphenicol-induced antibacterial activity by measuring chloramphenicol MIC at 7.6 uM incubated for 18 hrs in presence of chloramphenicol by broth microdilution assay (reference value: 128 ug/ml); assay type: functional
Pseudomonas aeruginosa [22] = experiment: Potentiation of chloramphenicol-induced antibacterial activity against Pseudomonas aeruginosa 264-101354 incubated for 18 hrs in presence of chloramphenicol by broth microdilution assay; assay type: functional, organism-based; settings: dose 1-32 µg/ml
Pseudomonas aeruginosa [23] = experiment: Potentiation of doxycycline-induced antibacterial activity against Pseudomonas aeruginosa 260-97103 assessed as fold change in doxycycline MIC at 9.8 uM incubated for 18 hrs in presence of doxycycline by broth microdilution assay relative to control; assay type: functional
[24] = Toxicity in Galleria mellonella larvae assessed as larval survival at 100 mg/kg measured after 96 hrs; assay type: organism-based; settings: in vivo
Pseudomonas aeruginosa [25] = experiment: Potentiation of chloramphenicol-induced antibacterial activity against Pseudomonas aeruginosa 114228 assessed as fold change in chloramphenicol MIC at 9.8 uM incubated for 18 hrs in presence of chloramphenicol by broth microdilution assay relative to control; assay type: functional
Pseudomonas aeruginosa [26] = experiment: Antibacterial activity against Pseudomonas aeruginosa 260-97103 assessed as fractional inhibitory concentration index incubated for 18 hrs in presence of minocycline by broth microdilution assay; assay type: functional
Pseudomonas aeruginosa [27] = experiment: Antibacterial activity against Pseudomonas aeruginosa 114228 assessed as potentiation of doxycycline-induced antibacterial activity by measuring doxycycline MIC at 9.8 uM incubated for 18 hrs in presence of doxycycline by broth microdilution assay (reference value: 32 ug/ml); assay type: functional
Pseudomonas aeruginosa [28] = experiment: Antibacterial activity against Pseudomonas aeruginosa 264-101354 assessed as fractional inhibitory concentration incubated for 18 hrs in presence of tigecycline by broth microdilution assay; assay type: functional
HepG2 = experiment: Cytotoxicity against human HepG2 cells assessed as cell viability at 50 uM incubated for 48 hrs in presence of doxycycline by prestoblue assay; assay type: cell-based; settings: hepg2, 48 h
Pseudomonas aeruginosa [29] = experiment: Antibacterial activity against Pseudomonas aeruginosa 260-97103 assessed as potentiation of doxycycline-induced antibacterial activity by measuring doxycycline MIC at 9.8 uM incubated for 18 hrs in presence of doxycycline by broth microdilution assay (reference value: 16 ug/ml); assay type: functional
Pseudomonas aeruginosa [30] = experiment: Antibacterial activity against Pseudomonas aeruginosa 114228 assessed as fractional inhibitory concentration index incubated for 18 hrs in presence of rifampicin by broth microdilution assay; assay type: functional

SMILES | FIC (Pseudomonas aeruginosa [1]) | FIC (Pseudomonas aeruginosa [2]) | FIC (Pseudomonas aeruginosa [3]) | FIC (Pseudomonas aeruginosa [5]) | FIC (Pseudomonas aeruginosa [6]) | Activity (Pseudomonas aeruginosa [7]) | fractional inhibitory concentration index (FICI) (Enterobacter cloacae [8]) | MIC (Klebsiella pneumoniae [9]) [µg/mL] | MIC (Enterobacter cloacae [10]) [µg/mL] | Activity (Pseudomonas aeruginosa [12]) | Activity (Pseudomonas aeruginosa [13]) | MIC (Klebsiella pneumoniae [15]) [µg/mL] | MIC (Enterobacter cloacae [16]) [µg/mL] | fractional inhibitory concentration index (FICI) (Pseudomonas aeruginosa [17]) | Activity (Pseudomonas aeruginosa [18]) | MIC (Klebsiella pneumoniae [19]) [µg/mL] | MIC (Acinetobacter baumannii) [µg/mL] | Activity (Pseudomonas aeruginosa [22]) | other results
CO[C@H]1/C=C/O[C@@]2(C)Oc3c(C)c(O)c4c(O)c(c(/C=N/N5CCN(C)CC5)c(O)c4c3C2=O)NC(=O)/C(C)=C\C=C\[C@H](C)[C@H](O)[C@@H](C)[C@@H](O)[C@@H](C)[C@H](OC(C)=O)[C@@H]1C [RIFAMPIN] | 0.5 | 0.5 | 0.5 | 0.5 | 0.5 | – | – | – | – | – | – | – | – | – | – | – | – | – | MIC (Pseudomonas aeruginosa [4]): 64 µg/mL
NC[C@H]1O[C@H](O[C@H]2[C@H](O)[C@@H](O[C@H]3O[C@H](CO)[C@@H](O)[C@H](N)[C@H]3O)[C@H](N)C[C@@H]2N)[C@H](N)C[C@@H]1O [TOBRAMYCIN] | 0.5 | 0.5 | 0.5 | <=0.5 | <=0.5 | – | – | – | – | – | – | – | – | – | – | – | – | – | –
CO[C@H]1/C=C/O[C@@]2(C)Oc3c(C)c(O)c4c(O)c(c(/C=N/N5CCN(Cc6cn(CCCCCCCCCCCCO[C@@H]7[C@@H](O[C@H]8O[C@H](CO)[C@@H](O)[C@H](N)[C@H]8O)[C@H](N)C[C@H](N)[C@H]7O[C@H]7O[C@H](CN)[C@@H](O)C[C@H]7N)nn6)CC5)c(O)c4c3C2=O)NC(=O)/C(C)=C\C=C\[C@H](C)[C@H](O)[C@@H](C)[C@@H](O)[C@@H](C)[C@H](OC(C)=O)[C@@H]1C.O=C(O)C(F)(F)F.O=C(O)C(F)(F)F.O=C(O)C(F)(F)F.O=C(O)C(F)(F)F.O=C(O)C(F)(F)F | – | – | – | – | – | Dose-dependent effect | 0.375 | 64 | 32 | Dose-dependent effect | Dose-dependent effect | 256 | 1 | <0.187 | Dose-dependent effect | > 128 | 64 | Dose-dependent effect | fold change (FC) (Pseudomonas aeruginosa [11]): 4; MIC (Pseudomonas aeruginosa [14]): 0.125 µg/mL; MIC (Pseudomonas aeruginosa [20]): 128 µg/mL; MIC (Pseudomonas aeruginosa [21]): 0.5 µg/mL
CO[C@H]1/C=C/O[C@@]2(C)Oc3c(C)c(O)c4c(O)c(c(/C=N/N5CCN(Cc6cn(CCCCCCO[C@@H]7[C@@H](O[C@H]8O[C@H](CO)[C@@H](O)[C@H](N)[C@H]8O)[C@H](N)C[C@H](N)[C@H]7O[C@H]7O[C@H](CN)[C@@H](O)C[C@H]7N)nn6)CC5)c(O)c4c3C2=O)NC(=O)/C(C)=C\C=C\[C@H](C)[C@H](O)[C@@H](C)[C@@H](O)[C@@H](C)[C@H](OC(C)=O)[C@@H]1C.Cl.Cl.Cl.Cl.Cl | – | – | – | – | – | Dose-dependent effect | 0.375 | 64 | 16 | Dose-dependent effect | Dose-dependent effect | 256 | 1 | <0.156 | Dose-dependent effect | > 128 | 32 | Dose-dependent effect | fold change (FC) (Pseudomonas aeruginosa [23]): 4; survival at 96 h [24]: 100%; fold change (FC) (Pseudomonas aeruginosa [25]): 4; fractional inhibitory concentration index (FICI) (Pseudomonas aeruginosa [26]): <0.13; MIC (Pseudomonas aeruginosa [27]): 1 µg/mL; FIC (Pseudomonas aeruginosa [28]): 0.063; Activity (HepG2): Non-Toxic; MIC (Pseudomonas aeruginosa [29]): 0.125 µg/mL; fractional inhibitory concentration index (FICI) (Pseudomonas aeruginosa [30]): <0.53
